According to patent US20230066946A1, “1,5-DIPHENYLPYRAZOLYL-3-OXYALKYL ACIDS AND 1-PHENYL-5-THIENYLPYRAZOLYL-3-OXYALKYL ACIDS AND THE USE THEREOF FOR CONTROL OF UNWANTED PLANT GROWTH” (Bayer Aktiengesellschaft, priority 2019, published 2023):

Tests used:
[1] = system: VIOTR; test: Pre-emergence herbicidal action against VIOTR; assay type: in vivo, Viola tricolor; conditions: 1280 g/ha, scored visually after about 3 weeks vs untreated controls
In short: (§1)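 Scoring is visual, in percent relative to untreated pots, roughly 3 weeks after soil-surface application. Rates were 1280 or 320 g/ha, delivered as WP or EC preparations with 0.5% additive in 600 L/ha water onto freshly sown, covered sandy loam.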

[2] = system: PHBPU; test: Post-emergence herbicidal action against PHBPU; assay type: in vivo, Pharbitis purpurea; conditions: 320 g/ha, visual rating about 3 weeks after treatment
In short: (§2)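 Greenhouse, sandy loam, one-leaf stage; compound as WP/EC at 1280 or 320 g/ha plus 0.5% additive (600 L/ha). Visual % activity at ~3 weeks relative to untreated plants.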

[3] = system: SETVI; test: Post-emergence herbicidal action against SETVI; assay type: in vivo, Setaria viridis; conditions: 1280 g/ha, post-emergence at one-leaf stage, rated visually after about 3 weeks vs untreated controls
In short: as §2

[4] = system: CYPES; test: Pre-emergence herbicidal action against CYPES; assay type: in vivo, Cyperus esculentus; conditions: scored visually after about 3 weeks vs untreated controls, 100% = plants have died, 0% = like control plants
In short: as §1

[5] = system: STEME; test: Pre-emergence herbicidal action against STEME; assay type: in vivo, Stellaria media; conditions: scored visually after about 3 weeks vs untreated controls
In short: as §1

[6] = system: MATIN; test: Post-emergence herbicidal action against MATIN; assay type: in vivo, Matricaria inodora; conditions: visual rating about 3 weeks after treatment
In short: as §2

[7] = system: STEME; test: Post-emergence herbicidal action against STEME; assay type: in vivo, Stellaria media; conditions: visual rating about 3 weeks after treatment
In short: as §2

[8] = system: POLCO; test: Pre-emergence herbicidal action against POLCO; assay type: in vivo, Polygonum convolvulus; conditions: 320 g/ha, scored visually after about 3 weeks vs untreated controls
In short: as §1

[9] = system: ALOMY; test: Pre-emergence herbicidal action against ALOMY; assay type: in vivo, Alopecurus myosuroides; conditions: scored visually after about 3 weeks vs untreated controls, 100% = plants have died, 0% = like control plants
Text: (§3) Seeds of mono- and dicotyledonous weed plants are placed in plastic pots in sandy loam soil (doubly sown with one species each of mono- or dicotyledonous weed plants per pot) and covered with soil. The compounds of the invention, formulated in the form of wettable powders (WP) or as emulsion concentrates (EC), are then applied onto the surface of the covering soil as aqueous suspension or emulsion with addition of 0.5% additive at a water application rate equivalent to 600 litres per hectare. After the treatment, the pots are placed in a greenhouse and kept under good growth conditions for the trial plants. After about 3 weeks, the effect of the preparations is scored visually in comparison with untreated controls as percentages. For example, 100% activity=the plants have died, 0% activity=like control plants. [table] Tables 4.1-4.15 below show the effects of selected compounds of the general formula (I) according to Tables 1 to 3 on various harmful plants at an application rate corresponding to 1280 or 320 g/ha, which have been obtained by the aforementioned experimental method.

[10] = system: AMARE; test: Post-emergence herbicidal action against AMARE; assay type: in vivo, Amaranthus retroflexus; conditions: visual rating about 3 weeks after treatment
In short: as §2

[11] = system: MATIN; test: Pre-emergence herbicidal action against MATIN; assay type: in vivo, Matricaria inodora; conditions: 1280 g/ha, scored visually after about 3 weeks vs untreated controls
In short: as §1

[12] = system: SETVI; test: Pre-emergence herbicidal action against SETVI; assay type: in vivo, Setaria viridis; conditions: 1280 g/ha, scored visually after about 3 weeks vs untreated controls
In short: as §1

[13] = system: AVEFA; test: Pre-emergence herbicidal action against AVEFA; assay type: in vivo, Avena fatua; conditions: scored visually after about 3 weeks vs untreated controls, 100% = plants have died, 0% = like control plants
Text: as §3

[14] = system: POLCO; test: Post-emergence herbicidal action against POLCO; assay type: in vivo, Polygonum convolvulus; conditions: 320 g/ha, visual rating about 3 weeks after treatment
In short: as §2

[15] = system: VERPE; test: Post-emergence herbicidal action against VERPE; assay type: in vivo, Veronica persica; conditions: 320 g/ha, visual rating about 3 weeks after treatment
In short: as §2

[16] = system: ALOMY; test: Post-emergence herbicidal action against ALOMY; assay type: in vivo, Alopecurus myosuroides; conditions: 1280 g/ha, post-emergence at one-leaf stage, rated visually after about 3 weeks vs untreated controls
In short: as §2

[17] = system: AMARE; test: Pre-emergence herbicidal action against AMARE; assay type: in vivo, Amaranthus retroflexus; conditions: scored visually after about 3 weeks vs untreated controls; for Pre-emergence action at 320 g/ha against AMARE in %: 100% = plants have died, 0% = like control plants; for Pre-emergence action against AMARE in %: 1280 g/ha
In short: as §1

[18] = system: HORMU; test: Pre-emergence herbicidal action against HORMU; assay type: in vivo, Hordeum murinum; conditions: 320 g/ha, scored visually after about 3 weeks vs untreated controls
Text: as §3

[19] = system: harmful plants; test: Pre-emergence herbicidal action, summary of Tables 4.1-4.15; assay type: in vivo; conditions: result in words
In short: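 Percent herbicidal action (100% = plants dead, 0% = like controls) was assessed visually about 3 weeks after treatment. Application rates of 1280 or 320 g/ha were applied to the covering soil of freshly sown sandy-loam pots, in 600 l/ha water with 0.5% additive, before emergence.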

[20] = system: AVEFA; test: Post-emergence herbicidal action against AVEFA; assay type: in vivo, Avena fatua; conditions: 1280 g/ha, post-emergence at one-leaf stage, rated visually after about 3 weeks vs untreated controls
Experimental: (§4) [table] Seeds of mono- and dicotyledonous weed plants are placed in plastic pots in sandy loam soil (twin sowing with one species each of mono- or dicotyledonous weed plants per pot), covered with soil and cultivated in a greenhouse under controlled growth conditions. 2 to 3 weeks after sowing, the test plants are treated at the one-leaf stage. The compounds of the invention, formulated in the form of wettable powders (WP) or as emulsion concentrates (EC), are applied to the green parts of the plants as aqueous suspension or emulsion with addition of 0.5% additive at a water application rate equivalent to 600 litres per hectare. After the test plants have been kept in the greenhouse under optimum growth conditions for about 3 weeks, the activity of the preparations is rated visually in comparison to untreated controls. For example, 100% activity=the plants have died, 0% activity=like control plants. Tables 5.1-5.16 below show the effects of selected compounds of the general formula (I) according to Tables 1 to 3 on various harmful plants at an application rate corresponding to 1280 or 320 g/ha, which have been obtained by the aforementioned experimental method.

[21] = system: LOLRI; test: Post-emergence herbicidal action against LOLRI; assay type: in vivo, Lolium rigidum; conditions: 1280 g/ha, post-emergence at one-leaf stage, rated visually after about 3 weeks vs untreated controls
Experimental: as §4

[22] = system: VIOTR; test: Post-emergence herbicidal action against VIOTR; assay type: in vivo, Viola tricolor; conditions: 320 g/ha, visual rating about 3 weeks after treatment
In short: as §2

[23] = system: HORMU; test: Post-emergence herbicidal action against HORMU; assay type: in vivo, Hordeum murinum; conditions: 320 g/ha, visual rating about 3 weeks after treatment
Experimental: as §4

[24] = system: ECHCG; test: Pre-emergence herbicidal action against ECHCG; assay type: in vivo, Echinochloa crus-galli; conditions: scored visually after about 3 weeks vs untreated controls, 100% = plants have died, 0% = like control plants
In short: as §1

[25] = system: ECHCG; test: Post-emergence herbicidal action against ECHCG; assay type: in vivo, Echinochloa crus-galli; conditions: 1280 g/ha, post-emergence at one-leaf stage, rated visually after about 3 weeks vs untreated controls
In short: as §2

[26] = system: VERPE; test: Pre-emergence herbicidal action against VERPE; assay type: in vivo, Veronica persica; conditions: 320 g/ha, scored visually after about 3 weeks vs untreated controls
In short: as §1

| SMILES | Post-emergence action against SETVI in % [3] [%] | Pre-emergence action against STEME in % ([5]; 1280 g/ha) [%] | Post-emergence action against MATIN in % ([6]; 320 g/ha) [%] | Post-emergence action against MATIN in % ([6]; 1280 g/ha) [%] | Post-emergence action against STEME in % ([7]; 1280 g/ha) [%] | Pre-emergence action against POLCO in % [8] [%] | Post-emergence action against AMARE in % ([10]; 320 g/ha) [%] | Post-emergence action against AMARE in % ([10]; 1280 g/ha) [%] | Pre-emergence action against SETVI in % [12] [%] | Post-emergence action against POLCO in % [14] [%] | Post-emergence action against VERPE in % [15] [%] | Pre-emergence action at 320 g/ha against AMARE in % [17] [%] | Pre-emergence action against AMARE in % [17] [%] | Pre-emergence action against HORMU in % [18] [%] | herbicidal efficacy against harmful plants in the case of pre-emergence treatment [19] | Post-emergence action against LOLRI in % [21] [%] | Post-emergence action against VIOTR in % [22] [%] | Post-emergence action against HORMU in % [23] [%] | Pre-emergence action at 1280 g/ha against ECHCG in % [24] [%] | Post-emergence action against ECHCG in % [25] [%] | further results |
| --- | --- | --- | --- | --- | --- | --- | --- | --- | --- | --- | --- | --- | --- | --- | --- | --- | --- | --- | --- | --- | --- |
| CCOC(=O)COc1nn(-c2ccccc2)c(-c2ccc(F)cc2)c1Br [I-056] | 80 | 100 | 80 | 80 | 90 | 80 | 80 | 80 | 100 | 80 | 90 | 80 | 100 | 80 | good herbicidal efficacy |  |  |  |  |  | Pre-emergence action against VIOTR in % [1]: 80%; Post-emergence action against PHBPU in % [2]: 80%; Pre-emergence action at 1280 g/ha against CYPES in % [4]: 90%; Pre-emergence action at 1280 g/ha against ALOMY in % [9]: 90%; Pre-emergence action against MATIN in % [11]: 90%; Pre-emergence action at 1280 g/ha against AVEFA in % [13]: 80%; Post-emergence action against ALOMY in % [16]: 90%; Post-emergence action against AVEFA in % [20]: 90% |
| COC(=O)C(C)Oc1nn(-c2cccc(F)c2)c(-c2cccc(F)c2)c1C#N (centres unmarked) [I-067] |  | 90 |  | 80 | 90 |  |  |  | 100 |  |  | 90 | 100 |  | good herbicidal efficacy | 90 | 80 | 80 | 80 | 90 | Pre-emergence action against VIOTR in % [1]: 100%; Pre-emergence action at 1280 g/ha against CYPES in % [4]: 90%; Post-emergence action against STEME in % ([7]; 320 g/ha): 80%; Pre-emergence action at 1280 g/ha against ALOMY in % [9]: 90%; Pre-emergence action against MATIN in % [11]: 90%; Pre-emergence action at 1280 g/ha against AVEFA in % [13]: 80%; Post-emergence action against ALOMY in % [16]: 100% |
| COC(=O)[C@@H](C)Oc1nn(-c2cccc(F)c2)c(-c2cccc(F)c2)c1C#N [I-125] | 90 | 100 | 80 | 90 | 90 | 100 | 90 | 90 | 100 | 80 | 80 | 100 | 100 | 90 | good herbicidal efficacy |  | 90 | 90 | 100 | 90 | Post-emergence action against PHBPU in % [2]: 80%; Pre-emergence action against STEME in % ([5]; 320 g/ha): 90%; Pre-emergence action against VERPE in % [26]: 90% |
| COC(=O)[C@@H](C)Oc1nn(-c2ccccc2)c(-c2ccc(F)cc2)c1C#N [I-130] |  | 100 | 90 | 90 | 100 | 90 | 90 | 90 | 100 | 90 | 90 | 100 | 100 | 100 |  | 90 | 90 | 80 | 100 | 100 | Pre-emergence action against STEME in % ([5]; 320 g/ha): 90%; Post-emergence action against STEME in % ([7]; 320 g/ha): 90%; Pre-emergence action against VERPE in % [26]: 100% |
| CC(Oc1nn(-c2ccccc2)c(-c2ccc(F)cc2)c1Cl)C(=O)O (centres unmarked) [I-139] |  | 100 | 80 | 90 | 90 | 90 | 90 |  | 100 | 90 |  | 100 | 100 | 90 | good herbicidal efficacy |  | 80 | 80 | 100 |  | Pre-emergence action against STEME in % ([5]; 320 g/ha): 100%; Post-emergence action against STEME in % ([7]; 320 g/ha): 80%; Pre-emergence action against VERPE in % [26]: 100% |
| COC(=O)C(C)Oc1nn(-c2ccccc2F)c(-c2ccc(F)c(F)c2)c1C#N (centres unmarked) [I-171] | 100 | 100 |  | 90 | 100 |  |  | 90 | 100 |  |  |  | 100 |  |  | 100 |  |  | 90 | 100 |  |
